In patent US10238655B2, “Dihydroindene and tetrahydronaphthalene compounds” (ARIZONA BOARD OF REGENTS ON BEHALF OF ARIZONA STATE …, priority 2017, dated 2019):

target: hRXRβ (Homo sapiens, UniProt P28702); details: read-out: EC50 for the hRXRβ isoform; cited from earlier work
Sequence (P28702 whole entry, canonical isoform): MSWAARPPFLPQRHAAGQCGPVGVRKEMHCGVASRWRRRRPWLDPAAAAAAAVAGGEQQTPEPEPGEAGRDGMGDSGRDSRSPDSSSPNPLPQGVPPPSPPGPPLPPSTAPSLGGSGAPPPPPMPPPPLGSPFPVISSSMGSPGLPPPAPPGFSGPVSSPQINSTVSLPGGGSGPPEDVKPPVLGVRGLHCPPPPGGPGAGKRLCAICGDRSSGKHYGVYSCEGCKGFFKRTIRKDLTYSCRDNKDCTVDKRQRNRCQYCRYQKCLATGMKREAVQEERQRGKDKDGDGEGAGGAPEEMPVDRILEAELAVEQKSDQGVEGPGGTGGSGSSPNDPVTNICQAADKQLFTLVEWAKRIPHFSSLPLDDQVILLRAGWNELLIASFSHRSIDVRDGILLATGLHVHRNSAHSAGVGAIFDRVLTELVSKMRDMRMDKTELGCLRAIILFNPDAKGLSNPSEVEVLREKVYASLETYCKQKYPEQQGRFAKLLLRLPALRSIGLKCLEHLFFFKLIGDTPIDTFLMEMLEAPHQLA

Row | SMILES | EC50
1 | Cc1cc2c(cc1-c1cc(/C=C/C(=O)O)ccc1O)C(C)(C)CCC2(C)C [CD3254] | ~10 nM

system: not given; details: not given

Row | SMILES | melting point
2 | CCN(c1ncc(C(=O)O)cn1)c1cc2c(cc1C)C(C)(C)CCC2(C)C [Example 6, 2-(Ethyl(3,5,5,8,8-pentamethyl-5,6,7,8-tetrahydronaphthalen-2-yl)amino)pyrimidine-5-carboxylic acid] | 231.9 to 233.1 °C
3 | CCN(c1ccc(C(=O)O)cc1)c1cc2c(cc1C)C(C)(C)CCC2(C)C [Example 3, 4-(Ethyl(3,5,5,8,8-pentamethyl-5,6,7,8-tetrahydronaphthalen-2-yl)amino)benzoic acid] | 252.4 to 256.8 °C
4 | CCN(c1ccc2c(c1)C(C)(C)CCC2(C)C)c1ccc(C(=O)O)cn1 [Example 1, 6-(ethyl(5,5,8,8-tetramethyl-5,6,7,8-tetrahydronaphthalen-2-yl)amino)nicotinic acid] | 230 to 232 °C
5 | CCN(c1ccc(C(=O)O)cc1)c1ccc2c(c1)C(C)(C)CCC2(C)C [Example 2, 4-(Ethyl(5,5,8,8-tetramethyl-5,6,7,8-tetrahydronaphthalen-2-yl)amino)benzoic acid] | 247.8 to 250.6 °C

Further lines, results first:

Row | melting point | SMILES
6 | 203.6 to 205.1 °C | CCN(c1cnc(C(=O)O)cn1)c1cc2c(cc1C)C(C)(C)CCC2(C)C [Example 8, 5-(Ethyl(3,5,5,8,8-pentamethyl-5,6,7,8-tetrahydronaphthalen-2-yl)amino)pyrazine-2-carboxylic acid]
7 | 213.1 to 214.4 °C | CCN(c1ccc2c(c1)C(C)(C)CCC2(C)C)c1cnc(C(=O)O)cn1 [Example 7, 5-(Ethyl(5,5,8,8-tetramethyl-5,6,7,8-tetrahydronaphthalen-2-yl)amino)pyrazine-2-carboxylic acid]
8 | 241.4 to 243.8 °C | CCN(c1ccc(C(=O)O)c(F)c1)c1cc2c(cc1C)C(C)(C)CCC2(C)C [Example 10, 4-(Ethyl(3,5,5,8,8-pentamethyl-5,6,7,8-tetrahydronaphthalen-2-yl)amino)-2-fluorobenzoic acid]
9 | 252.4 to 256.8 °C | CCN(c1ccc(C(=O)O)c(F)c1)c1ccc2c(c1)C(C)(C)CCC2(C)C [Example 9, 4-(Ethyl(5,5,8,8-tetramethyl-5,6,7,8-tetrahydronaphthalen-2-yl)amino)-2-fluorobenzoic acid]
